“Also recorded” adds a separate entry of the source.
Columns and labels:
[1] = test system: DAOY cell generated orthotopic MB; experiment: Intracranial orthotopic MB xenograft model; assay type: in vivo, NSG mice; details: for tumor at cerebellum region by H&E and Ki-67 IHC: vehicle-treated vs treated mice
Experimental: For the orthotopic MB model, stable luciferase-expressing DAOY cells (0.1×10^6) were used to generate the orthotopic MB tumor in NSG mice (Kumar, et al. (2021) Biomaterials 278:121138). Bioluminescence imaging using IVIS (Spectrum) was done to monitor the tumor growth weekly after implantation surgery.
A total of seven injections were given, and the mouse body weights were measured before every injection. The tumor growth was monitored by calipers in the case of the xenograft model and by IVIS imaging for the orthotopic model. For histological examination, the major organs of representative mice from each animal group were dissected and stained with H&E. Tissues after being fixed with 10% paraformaldehyde solution for 24 hours were embedded in 5 μm thick sections of paraffin, and were stained for different proteins. Stained slides were imaged at 40× magnification using an iScan HT Slide Scanner (Ventana Medical Systems, Inc, AZ).
Next, it was tested whether MDP5 treatment suppresses MB growth in an intracranial orthotopic xenograft model. DAOY cells stably expressing green fluorescent protein (GFP)/luciferase were injected into the cerebella of NSG mice. After twenty-one days of implantation, the tumor signal was measured with IVIS, and animals were divided into the vehicle (propylene glycol) or MDP5 treated groups. A drug solution was injected every three days for 28 days, and bioluminescence imaging was performed once a week.

[2] = biological target: T1, BRD2-BD2 (Homo sapiens, UniProt P25440); experiment: Protein Thermal Shift (PTS) assay on BRD2-BD2; assay type: binding; details: 100 μM ligand, 20 μM BD protein; positive = Tm increase
T1 construct: polyhistidine (N, cleaved yes); made in house; host or cells: E. coli (T7 express)
T1 sequence (P25440 344-453 limits assumed): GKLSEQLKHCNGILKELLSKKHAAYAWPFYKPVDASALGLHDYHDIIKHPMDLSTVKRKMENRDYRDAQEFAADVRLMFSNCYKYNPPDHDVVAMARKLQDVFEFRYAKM
Experimental: The genes encoding human BRD2-BD1, BRD2-BD2, and BRD4-BD2 were codon-optimized for expression in E. coli. […] The sequence-confirmed plasmids were used to transform T7 express E coli. Large-scale cell cultures were grown in LB media containing […] carbenicillin and incubated with shaking at 37° C. until the OD600 nm reached 0.6. Then cultures were cooled to 16° C., and 1 mM isopropyl β-D-1-thiogalactopyranoside was added to induce the protein expression. After 20 hours of incubation, cells were harvested. The resulting cell pellet was resuspended in a lysis buffer containing 50 mM Tris pH 7.5, 200 mM NaCl, 0.5 mM imidazole, and 0.3 mM tris(2-carboxyethyl) phosphine (TECP). After the addition of DNase I and lysozyme, the cell suspension was incubated on ice for 30 minutes and lysed by sonication. The lysate was clarified by centrifugation at 12,000 rpm for 45 minutes. […]
Each reaction used 20 μM concentration of recombinant BD protein in a 50 mM Tris pH 7.5 buffer containing 100 mM NaCl, 0.3 mM tris(2-carboxyethyl) phosphine HCl, and 1% dimethyl sulfoxide. […] Evaluation of the derivative of the fluorescence signal employed the Applied Bioscience Protein Thermal Shift Software version 1.3 to determine the average melting temperature (Tm) for each sample and the standard deviation(s) of those Tm values.

[3] = test system: ONS-76 cells; experiment: CD15+ tumor propagating cell population by FACS; assay type: cell-based; details: 5.0 μM, 48 hours, vs control
Experimental: The tumor propagating cell population in ONS-76 cells was identified based on CD15+ staining by fluorescence-activated cell sorting (FACS) analysis. […] Then, cells were trypsinized and 1×10^6 cells stained with a 5 μL aliquot of APC-CD15 antibody (BioLegend; 301,908) and analyzed with flow cytometry (BD, LSR Fortessa).

[4] = test system: MB cells; experiment: RT-qPCR of target genes; assay type: cell-based, human; details: RT-PCR
Experimental: Whole RNAs in cells after treatments were extracted using an RNA extraction kit (RNAeasy, Qiagen) to detect mRNA expression. cDNA templates were synthesized by reverse transcribing the RNA using a High-Capacity RNA-to-cDNA™ Kit (Thermo Fisher). The final RT-qPCR reaction mixture was used consisting of a total volume 10 μl containing […] SYBR Green master mix, 0.5 μl of each primer (10 μM) (Table 1), 2 μl of the cDNA template, and 3.5 μl RNase-free H2O. The relative expression level of the targeted gene was measured with Lightcycler 480 (Roche). The gene expression levels were calculated according to the 2^−ΔΔCq method using β-actin as the internal reference gene. Each assay was repeated≥3 times.

[5] = test system: MB cells (DAOY and HD-MB03); experiment: Colony formation (clonogenic) assay; assay type: cell-based, human; details: 48 hours treatment, 14-day incubation, both cell lines
Experimental: Approximately 500 MB cells were seeded overnight in 6 well plates and treated with MDP5 at IC50 for the colony formation assay. After 48 hours of incubation, the media was replaced by fresh media and allowed cells to grow for 2 weeks. Then, cells were fixed into 10% formalin and stained with a 0.5% solution of crystal violet dye in 20% methanol. After taking pictures, the colonies were dissolved in 10% acetic acid solution to measure the optical density.
Colony formation ability, cell cycle analysis, and cell apoptosis assay were performed in MB cells in presence of drugs as described (Kumar et al. (2021) Biomaterials 278:121138). For the colony formation assay, after taking images, the colonies were dissolved in 10% acetic acid solution to measure the optical density (OD).

## O=c1cc(N2CCOCC2)oc2c(-c3ccc4c(c3)OCCO4)cccc12 [MDP5, 8-(2,3-dihydrobenzo [b][1,4]dioxin-6-yl)-2-morpholino-4H-chromen-4-one]
[1]; control animals all dead by day 35
  survival: four animals out of five survived up to 49 days; also recorded: prolonged the survival
[1]; injection every three days for 28 days
  orthotopic tumor growth (IVIS imaging): significant effect on the suppression of tumor growth; also recorded: significantly suppressed tumor growth in vivo
[1]
  tumor at cerebellum region by H&E and Ki-67 IHC: much larger tumor at the cerebellum region of the vehicle-treated mouse
[1]; vs rapid increase in control animals
  bioluminescence (BLI) signal: low BLI signal
[2]
  change in BRD2-BD2 melting temperature (Tm): 2.4 °C
[3]
  percentage of CD15+ cell population: declined as compared to control cells
[4]; MB cells
  BCL2 mRNA expression: significantly reduced
[4]; vs control
  cyclin D1 gene expression: decreased significantly
[5]
  colony formation: significant decrease in colony formation potential; also recorded: lower number of colonies in both cell lines; also recorded: significantly decreased the colony formation capacity

## O=c1cc(N2CCOCC2)oc2c(-c3ccc4c(c3)OCCO4)csc12 [SF2523, reference compound]
[1]
  tumor at cerebellum region by H&E and Ki-67 IHC: much larger tumor at the cerebellum region of the vehicle-treated mouse
[2]
  change in BRD2-BD2 melting temperature (Tm): 6.3 °C

Reference: patent US20260069599A1, “INHIBITORS OF BROMODOMAIN-CONTAINING PROTEIN 4 AND PHOSPHOINOSITIDE 3-KINASE” (Board of Regents of the University of Nebraska, priority 2022, published 2026)
